Experimental data as given in patent US8778925B2, “Pyridine and pyrimidine based compounds as Wnt signaling pathway inhibitors for the treatment of cancer” (Cancer Research Technology Ltd., priority 2008, dated 2014).

Key:
[1] = test system: Wnt pathway; test: Luciferase reporter cell based assay (ER-DSH HEK293 cells); conditions: Homo sapiens, TCF-dependent transcription induced by estrogen (2 μM), reporter activity at 24 hours, read-out: IC50 in Luciferase reporter assay (ER-DSH HEK293 cells) assay described in Example 92
Method: Inhibitory activity of the Wnt pathway was assessed using a luciferase reporter cell based assay. A luciferase reporter cell line was developed in HEK293 cells, which contained an estrogen receptor-DSH (ER-DSH) construct and a TCF-luciferase-IRES-GFP construct.
A high-throughput assay was performed by inducing TCF-dependent transcription in the ER-DSH HEK293 cell line by the addition of estrogen (2 μM) resulting in at least a 14-fold increase in reporter activity measured at 24 hours. […]

Work on `O=C(O)C1CCN(c2c(Cl)cncc2-c2ccccc2)CC1` [Example E87, 1-(3-chloro-5-phenylpyridin-4-yl)piperidine-4-carboxylic acid] yielded an IC50 [1] of 0.74 µM.

Compound `COc1ccc(-c2cncc(Cl)c2N2CCC(C(N)=O)CC2)cc1` [Example E43, 1-(3-chloro-5-(4-methoxyphenyl)pyridin-4-yl)piperidine-4-carboxamide] has an IC50 [1] of 0.032 µM.

For `N#CC1CCN(c2c(Cl)cncc2-c2ccccc2)CC1` [Example E86, 1-(3-chloro-5-phenylpyridin-4-yl)piperidine-4-carbonitrile], the IC50 [1] was 0.09 µM.

With `NC(=O)C1CCN(c2c(Cl)cncc2Cl)C1` (stereo not shown) [Example E21, 1-(3,5-dichloropyridin-4-yl)pyrrolidine-3-carboxamide] the IC50 [1] was 0.76 µM and the melting point was 161 to 163 °C.

For `COc1ccc(-c2cncc(Cl)c2N2CCC(C(N)=O)C2)cc1` (stereo not shown) [Example E74, 1-(3-chloro-5-(4-methoxyphenyl)pyridin-4-yl)pyrrolidine-3-carboxamide], the IC50 [1] was 0.26 µM.

Work on `O=C(C1CCN(c2c(Cl)cncc2Cl)CC1)N1CCNCC1` [Example E20, (1-(3,5-dichloropyridin-4-yl)piperidin-4-yl)(piperazin-1-yl)methanone] yielded a melting point of 256 to 258 °C.

`CNC(=O)C1CCN(c2c(Cl)cncc2Cl)CC1` [Example E1, 1-(3,5-dichloropyridin-4-yl)-N-methylpiperidine-4-carboxamide] showed an IC50 [1] of 12.6 µM.

`O=C(NCCNCC1CCCCC1)C1CCN(c2c(Cl)cncc2Cl)CC1` [Example E16, N-(2-(cyclohexylmethylamino)ethyl)-1-(3,5-dichloropyridin-4-yl)piperidine-4-carboxamide] gave a melting point of 174 to 177 °C.

For `COc1ccc(-c2cncnc2N2CCC(C(N)=O)CC2)cc1` [Example E85, 1-(5-(4-methoxyphenyl)pyrimidin-4-yl)piperidine-4-carboxamide], the IC50 [1] was 1.58 µM.

Work on `O=C(NCCN(CC1CCCCC1)CC1CCCCC1)C1CCN(c2c(Cl)cncc2Cl)CC1` [Example E18, N-(2-(bis(cyclohexylmethyl)amino)ethyl)-1-(3,5-dichloropyridin-4-yl)piperidine-4-carboxamide] yielded a melting point of 236 to 238 °C.

For `NCCNC(=O)C1CCN(c2c(Cl)cncc2Cl)CC1` [Example E13, N-(2-aminoethyl)-1-(3,5-dichloropyridin-4-yl)piperidine-4-carboxamide], the IC50 [1] was 7 µM.

Compound `NC(=O)C1CCN(c2ncncc2Br)CC1` [Example E29, 1-(5-bromopyrimidin-4-yl)piperidine-4-carboxamide] has an IC50 [1] of 16.2 µM and a melting point of 188 to 190 °C.

Compound `O=C(NCCN(Cc1ccccc1)Cc1ccccc1)C1CCN(c2c(Cl)cncc2Cl)CC1` [Example E17, N-(2-(dibenzylamino)ethyl)-1-(3,5-dichloropyridin-4-yl)piperidine-4-carboxamide] has a melting point of 147 to 149 °C.

Compound `NC(=O)C1CCN(c2c(Cl)cncc2-c2ccncc2)CC1` [Example E65, 1-(5-chloro-3,4′-bipyridin-4-yl)piperidine-4-carboxamide] has an IC50 [1] of 0.44 µM.

`NC(=O)C1CCN(c2ccncc2Cl)CC1` [Example E12, 1-(3-chloropyridin-4-yl)piperidine-4-carboxamide] gave an IC50 [1] of 22.9 µM.

`O=C1NCCC12CCN(c1c(Cl)cncc1Cl)CC2` [Example E59, 8-(3,5-dichloropyridin-4-yl)-2,8-diazaspiro[4.5]decan-1-one] showed an IC50 [1] of 3.43 µM.

For `NC(=O)C1CCN(c2ccncc2-c2ccccc2)CC1` [Example E68, 1-(3-phenylpyridin-4-yl)piperidine-4-carboxamide], the IC50 [1] was 1.15 µM.

Work on `NC(=O)C1CCN(c2c(Br)cncc2Br)CC1` [Example E27, 1-(3,5-dibromopyridin-4-yl)piperidine-4-carboxamide] yielded an IC50 [1] of 0.21 µM.

`Cc1nn(C)cc1-c1cncc(Cl)c1N1CCC(C(N)=O)CC1` [Example E47, 1-(3-chloro-5-(1,3-dimethyl-1H-pyrazol-4-yl)pyridin-4-yl)piperidine-4-carboxamide] gave an IC50 [1] of 0.44 µM.

Work on `COc1ccc(-c2cncc(Cl)c2N2CCC(C(N)=O)CC2)cc1OC` [Example E4, 1-(3-chloro-5-(3,4-dimethoxyphenyl)pyridin-4-yl)piperidine-4-carboxamide] yielded an IC50 [1] of 0.17 µM.

`NC(=O)C1CCN(c2ncncc2-c2ccccc2)CC1` [Example E33, 1-(5-phenylpyrimidin-4-yl)piperidine-4-carboxamide] gave an IC50 [1] of 5 µM.

Work on `O=C1NCCC12CCN(c1c(Cl)cncc1-c1ccccc1)CC2` [Example E60, 8-(3-chloro-5-phenylpyridin-4-yl)-2,8-diazaspiro[4.5]decan-1-one] yielded an IC50 [1] of 0.033 µM.

Work on `CN(C)C(=O)C1CCN(c2c(Cl)cncc2Cl)CC1` [Example E2, 1-(3,5-dichloropyridin-4-yl)-N,N-dimethylpiperidine-4-carboxamide] yielded an IC50 [1] of 30 µM.

For `NC(=O)C1CCN(c2c(Cl)cncc2-c2ccc(F)cc2)CC1` [Example E50, 1-(3-chloro-5-(4-fluorophenyl)pyridin-4-yl)piperidine-4-carboxamide], the IC50 [1] was 0.11 µM.

`NC(=O)C1CCN(c2ncncc2Cl)CC1` showed a melting point of 201 to 202 °C.

Compound `O=C(NCCNc1c(Cl)cncc1Cl)C1CCN(c2c(Cl)cncc2Cl)CC1` [Example E5, 1-(3,5-dichloropyridin-4-yl)-N-(2-(3,5-dichloropyridin-4-ylamino)ethyl)piperidine-4-carboxamide] has a melting point of 157 to 159 °C.

In the case of `O=C(NCCNC(=O)C1CCN(c2c(Cl)cncc2Cl)CC1)c1ccccc1` [Example E19, N-(2-benzamidoethyl)-1-(3,5-dichloropyridin-4-yl)piperidine-4-carboxamide], the melting point is reported as 209 to 211 °C.

Compound `O=C(c1ccccc1)N1CCN(c2c(Cl)cncc2Cl)CC1` has a melting point of 132 to 134 °C.

`COc1ccc(-c2cnccc2N2CCC(C(N)=O)CC2)cc1` [Example E37, 1-(3-(4-methoxyphenyl)pyridin-4-yl)piperidine-4-carboxamide] gave an IC50 [1] of 1.64 µM.

`Clc1cncc(Cl)c1N1CCC(c2ncco2)CC1` [Example E35, 2-(1-(3,5-dichloropyridin-4-yl)piperidin-4-yl)oxazole] gave an IC50 [1] of 7.66 µM.

Work on `CC(=O)N1CCN(c2c(Cl)cncc2Cl)CC1` [Example E9, 1-(4-(3,5-dichloropyridin-4-yl)piperazin-1-yl)ethanone] yielded an IC50 [1] of 12.1 µM and a melting point of 144 to 146 °C.

Work on `Cc1cncnc1N1CCC(C(N)=O)CC1` yielded a melting point of 182 to 184 °C.

With `NC(=O)C1CCN(c2c(Br)cncc2-c2ccccc2)CC1` [Example E39, 1-(3-bromo-5-phenylpyridin-4-yl)piperidine-4-carboxamide] the melting point was 220 to 222 °C.

In the case of `N#CC1CCN(c2c(Br)cncc2Br)C1` (stereo not shown) [Example E23, 1-(3,5-dibromopyridin-4-yl)pyrrolidine-3-carbonitrile], the melting point is reported as 159 to 161 °C.
